From ChEMBL document CHEMBL5376011, “Discovery of Anti-Hypercholesterolemia Agents Targeting LXRα from Marine Microorganism-Derived Natural Products” (J Nat Prod, 2024)
Activity calls are given as the source filed them.

How the values were obtained:
[1] = biological target: T1, Oxysterols receptor LXR-alpha (Homo sapiens) (UniProt Q13133); assay: Agonist activity at LXRalpha in human HepG2 cells assessed as upregulation of ABCA1 protein expression level at 25 uM incubated for 24 hrs by Western blot analysis; format: cell-based; conditions: filed as agonist
T1 sequence (whole entry): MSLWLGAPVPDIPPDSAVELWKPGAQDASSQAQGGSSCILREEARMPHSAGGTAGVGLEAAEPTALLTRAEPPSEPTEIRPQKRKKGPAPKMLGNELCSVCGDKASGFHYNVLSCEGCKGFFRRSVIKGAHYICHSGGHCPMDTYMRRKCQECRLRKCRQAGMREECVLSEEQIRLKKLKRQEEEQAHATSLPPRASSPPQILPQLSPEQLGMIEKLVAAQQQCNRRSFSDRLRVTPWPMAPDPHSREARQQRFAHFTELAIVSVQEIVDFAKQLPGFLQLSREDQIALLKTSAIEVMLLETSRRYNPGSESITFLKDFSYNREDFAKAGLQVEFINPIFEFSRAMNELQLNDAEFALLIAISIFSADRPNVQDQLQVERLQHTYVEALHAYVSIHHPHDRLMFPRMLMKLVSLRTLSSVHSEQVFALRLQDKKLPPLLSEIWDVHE

[2] = biological target: T1, Oxysterols receptor LXR-alpha (Homo sapiens); assay: Agonist activity at LXRalpha in human HepG2 cells assessed as upregulation of ABCA1 mRNA expression by measuring fold change at 25 uM incubated for 24 hrs by RT-qPCR analysis; format: cell-based; conditions: filed as agonist
[3] = biological target: T1, Oxysterols receptor LXR-alpha (Homo sapiens); assay: Agonist activity at LXRalpha in human HepG2 cells assessed as upregulation of CYP7A1 mRNA expression by measuring fold change at 25 uM incubated for 24 hrs by RT-qPCR analysis; format: cell-based; conditions: filed as agonist
HepG2 [4] = assay: Effect on LXRbeta mRNA expression in human HepG2 cells at 25 uM incubated for 24 hrs by RT-qPCR analysis; format: functional, cell-based
HepG2 [5] = assay: Effect on ABCG1 mRNA expression in human HepG2 cells at 25 uM incubated for 24 hrs by RT-qPCR analysis; format: functional, cell-based
[6] = Cytotoxicity against human HepG2 cells assessed as reduction in cell viability incubated for 24 hrs by CCK8 assay; format: toxicity, cell-based
[7] = biological target: T1, Oxysterols receptor LXR-alpha (Homo sapiens); assay: Agonist activity at LXRalpha in human HepG2 cells assessed as upregulation of CYP7A1 protein expression level at 25 uM incubated for 24 hrs by Western blot analysis; format: cell-based; conditions: filed as agonist
[8] = biological target: T2, Oxysterols receptor LXR-alpha (Homo sapiens, UniProt Q13133); assay: Binding affinity to full length human LXRalpha assessed as dissociation constant by SPR analysis
T2 sequence (Q13133 whole entry): T1 sequence (whole entry)

HepG2 [9] = assay: Improvement of lipid metabolism in palmitic acid and oleic acid induced human HepG2 cell model of hepatic steatosis assessed as reduction in lipid droplets at 25 uM preincubated with palmitic acid and oleic acid for 48 hrs followed by compound addition and measured after 24 hrs by Oil Red O staining based analysis; format: functional
HepG2 [10] = assay: Improvement of lipid metabolism in palmitic acid and oleic acid induced human HepG2 cell model of hepatic steatosis assessed as reduction in total cellular cholesterol level at 25 uM preincubated with palmitic acid and oleic acid for 48 hrs followed by compound addition and measured after 24 hrs; format: functional, cell-based
HepG2 [11] = assay: Improvement of lipid metabolism in palmitic acid and oleic acid induced human HepG2 cell model of hepatic steatosis assessed as reduction in triglyceride level at 25 uM preincubated with palmitic acid and oleic acid for 48 hrs followed by compound addition and measured after 24 hrs; format: functional, cell-based
Mus musculus [12] = assay: Antihypercholesterolemic activity against high cholesterol diet fed C57BL/6J mouse assessed as improvement in hepatocyte degeneration at 300 microg/kg, ip administered every 2 days for 15 days by H&E staining based analysis; format: functional, organism-based; conditions: dose 300.0 µg/kg, time 15.0 day
Mus musculus [13] = assay: Antihypercholesterolemic activity against high cholesterol diet fed C57BL/6J mouse assessed as reduction of fine vacuoles in the cytoplasm at 300 microg/kg, ip administered every 2 days for 15 days by H&E staining based analysis; format: functional, organism-based; conditions: dose 300.0 µg/kg, time 15.0 day
Mus musculus [14] = assay: Antihypercholesterolemic activity against high cholesterol diet fed C57BL/6J mouse assessed as reduction in hepatocyte lysis necrosis at 300 microg/kg, ip administered every 2 days for 15 days by H&E staining based analysis; format: functional, organism-based; conditions: dose 300.0 µg/kg, time 15.0 day
Mus musculus [15] = assay: Antihypercholesterolemic activity against high cholesterol diet fed C57BL/6J mouse assessed as improvement in hepatocyte liposis at 300 microg/kg, ip administered every 2 days for 15 days by H&E staining based analysis; format: functional, organism-based; conditions: dose 300.0 µg/kg, time 15.0 day
Mus musculus [16] = assay: Antihypercholesterolemic activity against high cholesterol diet fed C57BL/6J mouse assessed as improvement in hepatocyte degeneration at 300 microg/kg, ip administered every 2 days for 15 days by Oil red staining based analysis; format: functional, organism-based; conditions: dose 300.0 µg/kg, time 15.0 day
Mus musculus [17] = assay: Antihypercholesterolemic activity against high cholesterol diet fed C57BL/6J mouse assessed as reduction of fine vacuoles in the cytoplasm at 300 microg/kg, ip administered every 2 days for 15 days by Oil red staining based analysis; format: functional, organism-based; conditions: dose 300.0 µg/kg, time 15.0 day
Mus musculus [18] = assay: Antihypercholesterolemic activity against high cholesterol diet fed C57BL/6J mouse assessed as reduction in hepatocyte lysis necrosis at 300 microg/kg, ip administered every 2 days for 15 days by Oil red staining based analysis; format: functional, organism-based; conditions: dose 300.0 µg/kg, time 15.0 day
Mus musculus [19] = assay: Antihypercholesterolemic activity against high cholesterol diet fed C57BL/6J mouse assessed as improvement in hepatocyte liposis at 300 microg/kg, ip administered every 2 days for 15 days by Oil red staining based analysis; format: functional, organism-based; conditions: dose 300.0 µg/kg, time 15.0 day
Mus musculus [20] = assay: Antihypercholesterolemic activity against high cholesterol diet fed C57BL/6J mouse assessed as reduction in degree of hepatic steatosis at 300 microg/kg, ip administered every 2 days for 15 days by Oil red staining based analysis; format: functional, organism-based; conditions: dose 300.0 µg/kg, time 15.0 day
Mus musculus [21] = assay: Antihypercholesterolemic activity against high cholesterol diet fed C57BL/6J mouse assessed as reduction in degree of hepatic steatosis at 300 microg/kg, ip administered every 2 days for 15 days by H&E staining based analysis; format: functional, organism-based; conditions: dose 300.0 µg/kg, time 15.0 day
Mus musculus [22] = assay: Antihypercholesterolemic activity against high cholesterol diet induced C57BL/6J mouse assessed as reduction in serum alanine aminotransferase level at 300 microg/kg, ip administered every 2 days for 15 days; format: functional, organism-based; conditions: dose 300.0 µg/kg, time 15.0 day
Mus musculus [23] = assay: Antihypercholesterolemic activity against high cholesterol diet induced C57BL/6J mouse assessed as reduction in serum aspartate aminotransferase level at 300 microg/kg, ip administered every 2 days for 15 days; format: functional, organism-based; conditions: dose 300.0 µg/kg, time 15.0 day
Mus musculus [24] = assay: Antihypercholesterolemic activity against high cholesterol diet induced C57BL/6J mouse assessed as reduction in total cholesterol level in plasma at 300 microg/kg, ip administered every 2 days for 15 days; format: functional, organism-based; conditions: dose 300.0 µg/kg, time 15.0 day
Mus musculus [25] = assay: Antihypercholesterolemic activity against high cholesterol diet induced C57BL/6J mouse assessed as reduction in plasma low-density lipoprotein cholesterol level at 300 microg/kg, ip administered every 2 days for 15 days; format: functional, organism-based; conditions: dose 300.0 µg/kg, time 15.0 day
Mus musculus [26] = assay: Antihypercholesterolemic activity against high cholesterol diet induced C57BL/6J mouse assessed as reduction in hepatocyte damage at 300 microg/kg, ip administered every 2 days for 15 days; format: functional, organism-based; conditions: dose 300.0 µg/kg, time 15.0 day
Mus musculus [27] = assay: Antihypercholesterolemic activity against high cholesterol diet fed LXRalpha knockout C57BL/6J mouse assessed as improvement in hepatocellular degeneration at 300 microg/kg, ip administered every 2 days for 15 days by H&E staining based analysis; format: functional, organism-based; conditions: dose 300.0 µg/kg, time 15.0 day
Mus musculus [28] = assay: Antihypercholesterolemic activity against high cholesterol diet fed LXRalpha knockout C57BL/6J mouse assessed as improvement in hepatic steatosis at 300 microg/kg, ip administered every 2 days for 15 days by H&E staining based analysis; format: functional, organism-based; conditions: dose 300.0 µg/kg, time 15.0 day
Mus musculus [29] = assay: Antihypercholesterolemic activity against high cholesterol diet fed LXRalpha knockout C57BL/6J mouse assessed as improvement in liver lipid droplet accumulation at 300 microg/kg, ip administered every 2 days for 15 days by H&E staining based analysis; format: functional, organism-based; conditions: dose 300.0 µg/kg, time 15.0 day
Mus musculus [30] = assay: Antihypercholesterolemic activity against high cholesterol diet fed LXRalpha knockout C57BL/6J mouse assessed as improvement in hepatocellular degeneration at 300 microg/kg, ip administered every 2 days for 15 days by Oil red staining based analysis; format: functional, organism-based; conditions: dose 300.0 µg/kg, time 15.0 day
Mus musculus [31] = assay: Antihypercholesterolemic activity against high cholesterol diet fed LXRalpha knockout C57BL/6J mouse assessed as improvement in hepatic steatosis at 300 microg/kg, ip administered every 2 days for 15 days by Oil red staining based analysis; format: functional, organism-based; conditions: dose 300.0 µg/kg, time 15.0 day
Mus musculus [32] = assay: Antihypercholesterolemic activity against high cholesterol diet fed LXRalpha knockout C57BL/6J mouse assessed as improvement in liver lipid droplet accumulation at 300 microg/kg, ip administered every 2 days for 15 days by Oil red staining based analysis; format: functional, organism-based; conditions: dose 300.0 µg/kg, time 15.0 day
Mus musculus [33] = assay: Antihypercholesterolemic activity against high cholesterol diet fed LXRalpha knockout C57BL/6J mouse assessed as reduction in serum alanine aminotransferase level at 300 microg/kg, ip administered every 2 days for 15 days; format: functional, organism-based; conditions: dose 300.0 µg/kg, time 15.0 day
Mus musculus [34] = assay: Antihypercholesterolemic activity against high cholesterol diet fed LXRalpha knockout C57BL/6J mouse assessed as reduction in serum aspartate aminotransferase level at 300 microg/kg, ip administered every 2 days for 15 days; format: functional, organism-based; conditions: dose 300.0 µg/kg, time 15.0 day
Mus musculus [35] = assay: Antihypercholesterolemic activity against high cholesterol diet fed LXRalpha knockout C57BL/6J mouse assessed as reduction in serum total cholesterol level at 300 microg/kg, ip administered every 2 days for 15 days; format: functional, organism-based; conditions: dose 300.0 µg/kg, time 15.0 day
Mus musculus [36] = assay: Antihypercholesterolemic activity against high cholesterol diet fed LXRalpha knockout C57BL/6J mouse assessed as reduction in serum triglycerides level at 300 microg/kg, ip administered every 2 days for 15 days; format: functional, organism-based; conditions: dose 300.0 µg/kg, time 15.0 day
Mus musculus [37] = assay: Antihypercholesterolemic activity against high cholesterol diet fed LXRalpha knockout C57BL/6J mouse assessed as reduction in serum low density lipoprotein cholesterol level at 300 microg/kg, ip administered every 2 days for 15 days; format: functional, organism-based; conditions: dose 300.0 µg/kg, time 15.0 day
Mus musculus [38] = assay: Antihypercholesterolemic activity against high cholesterol diet fed LXRalpha knockout C57BL/6J mouse assessed as reduction in serum high density lipoprotein cholesterol level at 300 microg/kg, ip administered every 2 days for 15 days; format: functional, organism-based; conditions: dose 300.0 µg/kg, time 15.0 day
Mus musculus [39] = assay: Antihypercholesterolemic activity against high cholesterol diet fed LXRalpha knockout C57BL/6J mouse assessed as upregulation in ABCA1 protein level at 300 microg/kg, ip administered every 2 days for 15 days by Western blot analysis; format: functional, organism-based; conditions: dose 300.0 µg/kg, time 15.0 day
Mus musculus [40] = assay: Antihypercholesterolemic activity against high cholesterol diet fed LXRalpha knockout C57BL/6J mouse assessed as upregulation in CYP7A1 protein level at 300 microg/kg, ip administered every 2 days for 15 days by Western blot analysis; format: functional, organism-based; conditions: dose 300.0 µg/kg, time 15.0 day
Mus musculus [41] = assay: Antihypercholesterolemic activity against high cholesterol diet fed C57BL/6J mouse assessed as reduction in SREBP1 protein level at 300 microg/kg, ip administered every 2 days for 15 days by Western blot analysis; format: functional, organism-based; conditions: dose 300.0 µg/kg, time 15.0 day
Mus musculus [42] = assay: Antihypercholesterolemic activity against high cholesterol diet fed C57BL/6J mouse assessed as reduction in FASN protein level at 300 microg/kg, ip administered every 2 days for 15 days by Western blot analysis; format: functional, organism-based; conditions: dose 300.0 µg/kg, time 15.0 day
Mus musculus [43] = assay: Antihypercholesterolemic activity against high cholesterol diet fed C57BL/6J mouse assessed as reduction in SCD1 protein level at 300 microg/kg, ip administered every 2 days for 15 days by Western blot analysis; format: functional, organism-based; conditions: dose 300.0 µg/kg, time 15.0 day

COc1ccc2c3c([nH]c2c1)[C@H](C=C(C)C)N1C(=O)[C@@H]2CCCN2C(=O)[C@]1(O)[C@H]3O
5.6 nM: Kd [8]
5.02: fold change (FC) [3]
> 50000 nM: IC50 at 24 h [6]
inactive: Activity (HepG2 [4]) | Activity (HepG2 [5]) | Activity (Mus musculus [33]) | Activity (Mus musculus [34]) | Activity (Mus musculus [35]) | Activity (Mus musculus [36]) | Activity (Mus musculus [37]) | Activity (Mus musculus [38]) | Activity (Mus musculus [39]) | Activity (Mus musculus [40])
active: Activity [1] | Activity [7] | Activity (HepG2 [9]) | Activity (HepG2 [10]) | Activity (HepG2 [11]) | Activity (Mus musculus [12]) | Activity (Mus musculus [13]) | Activity (Mus musculus [14]) | Activity (Mus musculus [15]) | Activity (Mus musculus [16]) | Activity (Mus musculus [17]) | Activity (Mus musculus [18]) | Activity (Mus musculus [19]) | Activity (Mus musculus [20]) | Activity (Mus musculus [21]) | Activity (Mus musculus [22]) | Activity (Mus musculus [23]) | Activity (Mus musculus [24]) | Activity (Mus musculus [25]) | Activity (Mus musculus [26]) | Activity (Mus musculus [27]) | Activity (Mus musculus [28]) | Activity (Mus musculus [29]) | Activity (Mus musculus [30]) | Activity (Mus musculus [31]) | Activity (Mus musculus [32]) | Activity (Mus musculus [41]) | Activity (Mus musculus [42]) | Activity (Mus musculus [43])
2.13: fold change (FC) [2]
